This note sets out measurements from patent publication EP0642343B1, “Acridine carboxamides for the treatment of cancer” (XENOVA LIMITED, priority 1992, dated 1993).

pIC50: −log10 of the molar value.

The test system of test [1] is human Jurkat T cell leukaemia line, diploid (L). As to the kind of experiment: Growth inhibition of leukaemia line, continuous exposure, MTT staining. The format is cell-based. The note with it: continuous drug exposure. On the procedure: (§1) Tumour cell lines were cultured in 96-well plates. […] Primary cultures were incubated at 37°C in sealed perspex boxes containing a humidified atmosphere of 5% CO2 and 5% O2 in nitrogen for 7 days. 5-Methyl-[^3H]-thymidine (20 Ci.mmol^-1; 0.04 µCi per well), thymidine and 5-fluorodeoxyuridine (each at final concentrations of 0.5 µM) were added in medium to cultures (20 µl per well) 24 h before terminating the cultures.
(§2) 1989, 81:1088-1092, where growth, as indicated by staining or thymidine incorporation, corresponded to 50% of that of the control cultures.
(§3) The effect of DACA on the growth of cultured cells was assessed by continuous drug exposure. […] These values were similar to those of other human leukaemia cell lines, which ranged from 290 to 760 nM (CEM-CCRF, 410 nM; MOLT-4, 290 nM; Daudi, 400 nM; Raji, 370 nM, U937, 590 nM; HL-60, 620 nM; K-562, 760 nM). Four multidrug-resistant cell lines, developed from JL and JB1 by in vitro exposure to increasing concentrations of doxorubicin (LD and B1D) or amsacrine (LA and B1A) (Finlay G.J., et al., J. Natl. Cancer Inst. 1990, 82, 662-667, Snow K., et al., Br. J. Cancer 1991, 63, 17-28) were tested.

In another test the test system is Daudi. Described as above. The note with it: Homo sapiens. Format: cell-based. How it is done:
as §1, §2, §3

In a further test the test system is U937. The description is as above. The format is cell-based. The settings on record: Homo sapiens, U-937. How it is done: as §1, §2, §3
For the next test, the system named is MOLT-4. The description is as above. The format is cell-based. The settings on record: Homo sapiens. How it is done:
as §1, §2, §3

Test [2] has as its system human Jurkat T cell leukaemia line, tetraploid (B1). Described as above. The settings on record: continuous drug exposure. The format is cell-based. How it is done:
as §1, §2, §3

The test system of another test is CEM-CCRF. Described as above. The format is cell-based. The settings on record: Homo sapiens. How it is done:
as §1, §2, §3

The test system of a further test is Raji. The description is as above. The format is cell-based. The note with it: Homo sapiens. How it is done: as §1, §2, §3
In a further test the test system is HL-60. The description is as above. The format is cell-based. The settings on record: Homo sapiens. On the procedure:
as §1, §2, §3

Another test has as its system K-562. The test is described as above. Format: cell-based. The settings on record: Homo sapiens, K562. On the procedure:
as §1, §2, §3

Another test relates to LD. As to the kind of experiment: Resistance factor, drug-resistant Jurkat leukaemia subline. The format is cell-based, human. The settings on record: LD (from L by exposure to doxorubicin); ratio of IC50 resistant line / parent line. How it is done:
(§4) Tumour cell lines were cultured in 96-well plates. Growth of NCI cell lines was assessed using sulpho-rhodamine B staining (Skehan P., et al., J. Natl. Cancer Inst. 1990, 82, 1107-1112), that of the leukaemia lines with (4,5-dimethylthiazole-2-yl)-2,5-diphenyltetrazolium (MTT) staining (Mosmann T., J. Immun. Methods 1983, 65, 55-63) and that of the primary human tumour material by ^3H-thymidine incorporation (Marshall E.S., et al., J. Natl. Cancer Inst. 1992, 84, 341-344). Primary tumour material was cultured in 96-well plates in which the wells were coated with agarose to inhibit selectively the growth of normal cells. (Marshall E.S., et al., J. Natl. Cancer Inst. 1992, 84, 341-344). Primary cultures were incubated at 37°C in sealed perspex boxes containing a humidified atmosphere of 5% CO2 and 5% O2 in nitrogen for 7 days. 5-Methyl-[^3H]-thymidine (20 Ci.mmol^-1; 0.04 µCi per well), thymidine and 5-fluorodeoxyuridine (each at final concentrations of 0.5 µM) were added in medium to cultures (20 µl per well) 24 h before terminating the cultures. Cells were aspirated on to glass fibre filters using a multiple automated sample harvester (LKB Wallac OY Beta Harvester). The filter discs were washed for 15 seconds with water, dried, and the amount of tritium retained quantified by liquid scintillation.
(§5) IC50 values were defined as in Paull K.D., et al., J. Natl. Cancer Inst. 1989, 81:1088-1092, where growth, as indicated by staining or thymidine incorporation, corresponded to 50% of that of the control cultures. […] Variances of DELTA values were expressed as standard deviations in log10 units. Comparison of DELTA values was made using Pearson correlation coefficients. Resistance factors were defined as the ratios of IC50 values between the resistant line and the parent line. Statistical evaluation was performed either with NCI programmes, with RS/1 software (BBN Research Systems, Cambridge, MA, USA), or with Sigmaplot (Jandel Scientific, San Rafael, CA, USA).
(§6) The effect of DACA on the growth of cultured cells was assessed by continuous drug exposure. […] Four multidrug-resistant cell lines, developed from JL and JB1 by in vitro exposure to increasing concentrations of doxorubicin (LD and B1D) or amsacrine (LA and B1A) (Finlay G.J., et al., J. Natl. Cancer Inst. 1990, 82, 662-667, Snow K., et al., Br. J. Cancer 1991, 63, 17-28) were tested.
(§7) DACA was compared with six other drugs including four topo II poisons, doxorubicin, mitozantrone, etopo-side and amsacrine. […]

The test system of the next test is B1A. The test is described as above. The settings on record: B1A (from B1 by exposure to amsacrine); ratio of IC50 resistant line / parent line. The format is cell-based, human. How it is done: as §4, §5, §6, §7
Another test relates to LA. Described as above. The settings on record: LA (from L by exposure to amsacrine); ratio of IC50 resistant line / parent line. The format is cell-based, human. How it is done:
as §4, §5, §6, §7

For another test, the system named is B1D. The description is as above. The note with it: B1D (from B1 by exposure to doxorubicin); ratio of IC50 resistant line / parent line. Format: cell-based, human. On the procedure: as §4, §5, §6, §7

In general, pIC50 refers to the negative decadic logarithm of the IC50, by convention in mol/L. Lower therefore signals a large IC50.

For the compound `CN(C)CCNC(=O)c1cccc2cc3ccccc3nc12` [DACA, N-[2-(dimethylamino)ethyl]acridine-4-carboxamide], the pIC50 is 6.42 in test [1]; 6.40 with Daudi; 6.23 in the test on U937; 6.54 in the test on MOLT-4; 6.42 in [2]; 6.39 in the test with CEM-CCRF. Moreover, the pIC50 in the test with Raji is 6.43; with HL-60, 6.21; with K-562, 6.12. Further, the Resistance factors in the test on LD amounted to 2.5; with B1A, 3.9; in the test on LA it was 2.0; in the test with B1D, 1.9.
